In brackets after ≈: the same amount, converted by molar mass. One block for each compound: values may come before it.
Tests used:
[1] = Tmax in BALB/C mouse at 10 mg/kg, po measured upto 24 hrs by LC-MS analysis; format: ADME, organism-based; settings: in vivo
[2] = Cmax in BALB/C mouse at 10 mg/kg,po measured upto 24 hrs by LC-MS analysis; format: ADME, organism-based; set-up: route oral, dose 10 mg/kg, time <= 24; settings: in vivo
[3] = AUClast in BALB/C mouse at 10 mg/kg,po measured upto 24 hrs by LC-MS analysis; format: ADME, organism-based; set-up: route oral, dose 10 mg/kg, time <= 24; settings: in vivo
[4] = Oral bioavailability in BALB/C mouse at 10 mg/kg measured upto 24 hrs by LC-MS analysis; format: ADME, organism-based; settings: in vivo
[5] = Tmax in BALB/C mouse at 1 mg/kg, iv measured upto 24 hrs by LC-MS analysis; format: ADME, organism-based; settings: in vivo
[6] = Cmax in BALB/C mouse at 1 mg/kg, iv measured upto 24 hrs by LC-MS analysis; format: ADME, organism-based; set-up: route intravenous, dose 1 mg/kg, time <= 24; settings: in vivo
[7] = AUClast in BALB/C mouse at 1 mg/kg, iv measured upto 24 hrs by LC-MS analysis; format: ADME, organism-based; set-up: route intravenous, dose 1 mg/kg, time <= 24; settings: in vivo
[8] = Volume of distribution at steady state in BALB/C mouse at 1 mg/kg, iv measured upto 24 hrs by LC-MS analysis; format: ADME, organism-based; settings: in vivo, read-out: Vdss
[9] = Lipophilicity, log D of compound at pH 7.4; format: physicochemical; settings: buffer
[10] = Solubility of the compound; format: physicochemical
[11] = AUClast in BALB/C mouse at 10 mg/kg, iv measured upto 24 hrs by LC-MS analysis; format: ADME, organism-based; set-up: route intravenous, dose 10 mg/kg, time <= 24; settings: in vivo
[12] = Tmax in BALB/C mouse at 30 mg/kg, po measured upto 24 hrs by LC-MS analysis; format: ADME, organism-based; settings: in vivo
[13] = Cmax in BALB/C mouse at 30 mg/kg,po measured upto 24 hrs by LC-MS analysis; format: ADME, organism-based; set-up: route oral, dose 30 mg/kg, time <= 24; settings: in vivo
[14] = Oral bioavailability in BALB/C mouse at 30 mg/kg measured upto 24 hrs by LC-MS analysis; format: ADME, organism-based; settings: in vivo
[15] = Drug uptake in CB.17 SCID mouse tumor xenografted with OCI-LY10 cells at 3 mg/kg, po once daily for 24 days; format: ADME, organism-based, Neoplasm; settings: time 24 day, read-out: Drug uptake
[16] = Plasma concentration in CB.17 SCID mouse xenografted with OCI-LY10 cells at 3 mg/kg, po once daily for 24 days; format: ADME, organism-based; settings: time 24 day
[17] = Drug uptake in CB.17 SCID mouse tumor xenografted with TMD-8 cells at 3 mg/kg, po once daily for 19 days; format: ADME, organism-based, Neoplasm; settings: time 19 day, read-out: Drug uptake
[18] = Plasma concentration in CB.17 SCID mouse xenografted with TMD-8 cells at 3 mg/kg, po once daily for 19 days; format: ADME, organism-based; settings: time 19 day
[19] = Drug uptake in CB.17 SCID mouse tumor xenografted with SUDHL-6 cells assessed as effect on body weight at 5 mg/kg, po once daily for 15 days; format: ADME, organism-based, Neoplasm; settings: time 15 day, read-out: Drug uptake
[20] = Plasma concentration in CB.17 SCID mouse tumor xenografted with SUDHL-6 cells assessed as effect on body weight at 5 mg/kg, po once daily for 15 days; format: ADME, organism-based; settings: time 15 day
[21] = Tmax in Sprague-Dawley rat at 3 mg/kg, iv measured upto 24 hrs by LC-MS/MS analysis; format: ADME, organism-based; settings: in vivo
[22] = Cmax in Sprague-Dawley rat at 3 mg/kg, iv measured upto 24 hrs by LC-MS/MS analysis; format: ADME, organism-based; set-up: route intravenous, dose 3 mg/kg, time <=24; settings: in vivo
[23] = Volume of distribution at steady state in Sprague-Dawley rat at 3 mg/kg, iv measured upto 24 hrs by LC-MS/MS analysis; format: ADME, organism-based; settings: in vivo, read-out: Vdss
[24] = Tmax in Sprague-Dawley rat at 3 mg/kg, po measured upto 24 hrs by LC-MS/MS analysis; format: ADME, organism-based; settings: in vivo
[25] = Cmax in Sprague-Dawley rat at 3 mg/kg, po measured upto 24 hrs by LC-MS/MS analysis; format: ADME, organism-based; set-up: route oral, dose 3 mg/kg, time <=24; settings: in vivo
[26] = Tmax in Beagle dog at 1 mg/kg, iv measured upto 24 hrs by LC-MS/MS analysis; format: ADME, organism-based, Canis lupus familiaris; settings: in vivo
[27] = Tmax in Beagle dog at 1 mg/kg, po measured upto 24 hrs by LC-MS/MS analysis; format: ADME, organism-based, Canis lupus familiaris; settings: in vivo
[28] = Cmax in Beagle dog at 1 mg/kg, po measured upto 24 hrs by LC-MS/MS analysis; format: ADME, organism-based, Canis lupus familiaris; set-up: route oral, dose 1 mg/kg, time <=24; settings: in vivo
[29] = Oral bioavailability in Beagle dog at 1 mg/kg measured upto 24 hrs by LC-MS/MS analysis; format: ADME, organism-based, Canis lupus familiaris; settings: in vivo
[30] = Volume of distribution at steady state in BALB/C mouse at 10 mg/kg, iv measured upto 24 hrs by LC-MS analysis; format: ADME, organism-based; settings: in vivo, read-out: Vdss
[31] = in vivo; settings: BALB/C, mouse, po, 30 mg/kg

Tmax [1]: 30 min
Cmax [2]: 2100 nM
AUC(0-t) at 24 h [3]: 2.4 µM·h
bioavailability [4]: 30%
Tmax [5]: 4.8 min
Cmax [6]: 1300 nM
AUC(0-t) at 24 h [7]: 0.8 µM·h
Vd [8]: 1.7 L/kg
SMILES: Cc1c([C@H](C)Nc2nc(N)nc(N)c2C#N)c(-c2ccccc2)c(=O)n2cc(F)ccc12

Tmax [1]: 30 min
Cmax [2]: 2600 nM
AUC(0-t) at 24 h [3]: 3.5 µM·h
bioavailability [4]: 22%
Tmax [5]: 4.8 min
Cmax [6]: 2300 nM
AUC(0-t) at 24 h [7]: 1.6 µM·h
Vd [8]: 1.3 L/kg
logD [9]: 1.26
solubility [10]: 691 µM (≈ 287 µg/mL)
SMILES: C[C@H](Nc1nc(N)nc(N)c1C#N)c1cc2ccc(F)cn2c(=O)c1-c1ccccc1

AUC(0-t) at 24 h [11]: 7.43 µM·h
Tmax [12]: 15 min
Cmax [13]: 6980 nM
bioavailability [14]: 37.6%
concentration at 576 h [15]: 150 nM
concentration at 576 h [16]: 40 nM
concentration at 456 h [17]: 140 nM
concentration at 456 h [18]: 20 nM
Tmax [21]: 4.8 min
Cmax [22]: 3460 nM
Vd [23]: 2.49 L/kg
Tmax [24]: 180 min
Cmax [25]: 310 nM
Tmax [26]: 4.8 min
Tmax [27]: 60 min
Cmax [28]: 500 nM
bioavailability [29]: 48%
Vd [30]: 0.73 L/kg
AUC(0-t) at 24 h [31]: 9.25 µM·h
SMILES: CC[C@H](Nc1ncnc2[nH]cnc12)c1nc2cccc(F)c2c(=O)n1-c1ccccc1 [IDELALISIB]
concentration at 360 h [19]: 80 nM
concentration at 360 h [20]: 30 nM
